Consider 65 molecules from article PMC8041284, “Tunable Methacrylamides for Covalent Ligand Directed Release Chemistry” (Journal of the American Chemical Society, 2021).

The target of the assay is BTK (Homo sapiens, UniProt Q06187). Description: biochemical. To be noted: read-out: BTK inhibition (%), 0.75 uM BTK, […] probe 3l, 15 min preincubation.
BTK, sequence (Q06187 402-655 limits assumed): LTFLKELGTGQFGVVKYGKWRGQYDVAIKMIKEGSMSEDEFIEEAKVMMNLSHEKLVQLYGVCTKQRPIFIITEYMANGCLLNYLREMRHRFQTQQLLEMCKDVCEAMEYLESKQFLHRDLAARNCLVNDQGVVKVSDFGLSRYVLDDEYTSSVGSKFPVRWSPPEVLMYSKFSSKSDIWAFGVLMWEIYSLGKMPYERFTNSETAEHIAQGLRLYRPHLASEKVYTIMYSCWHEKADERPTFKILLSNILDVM
With `CC(=O)N1CCN(c2ccc(NC(=O)Cc3cnc(-c4ccnc(F)c4)c(C)c3)nc2)CC1` [PCM-0215890], the inhibition (as a rule, the relative decrease from the control value, in per cent) at 10 µM is -10.8%. Regarding `Cc1nc2n(c(=O)c1CCN1CCC(c3noc4cc(F)ccc34)CC1)CCCC2` [PCM-0086311], the inhibition at 10 µM worked out at 1.7%.

Consider `CC1(C)[C@@H]2CC[C@@]1(C)C(=O)C2` [PCM-0214819], for which the inhibition at 10 µM amounted to 1.6%. For `Nc1ccc(/C=C/C(=O)NCc2cc3cc(-c4ccc(C(=O)N5CCC(F)(F)CC5)cc4)cc(-c4ccc(F)cc4)c3o2)cn1` [PCM-0216035], the inhibition at 10 µM stood at 31.7%. With `CC1(C)O[C@H]1COc1c2ccoc2cc2oc(=O)ccc12` [PCM-0216499], the inhibition at 10 µM was found to be 0.8%. Consider `Clc1ccccc1CN1CCc2sccc2C1` [PCM-0085848], for which the inhibition at 10 µM was -2.6%. Regarding `COc1ccc2c(c1O)-c1c(O)c(OC)cc3c1[C@H](C2)[N+](C)(C)CC3` [PCM-0216382], the inhibition at 10 µM is -1.5%. The figure for `C[C@H](C[C@H](O)[C@@H](O)C(C)(C)O)C1=C2C[C@H](O)[C@H]3[C@@]4(C)CCC(=O)C(C)(C)[C@@H]4CC[C@]3(C)[C@@]2(C)CC1` [PCM-0216519] is -29.3%; for `CN1CC(=O)N=C1N` [PCM-0090615] it is -3.4%; for `O=C(O)c1cc(=O)[nH]c(=O)[nH]1` [PCM-0090751] it is -11.7%.

Turning to `CC(C)=CCC[C@@](C)(O)[C@H]1CC[C@]2(C)[C@@H]1[C@H](O)C[C@@H]1[C@@]3(C)CC[C@H](O)C(C)(C)[C@@H]3[C@@H](O[C@@H]3O[C@H](CO)[C@@H](O)[C@H](O)[C@H]3O)C[C@]12C` [PCM-0216547], the inhibition at 10 µM was 12.4%.

On to `Clc1ccc(Nc2nnc(Cc3ccncc3)c3ccccc23)cc1` [PCM-0086134], for which the inhibition at 10 µM was -14.5%. Turning to `CC[C@H]1OC(=O)[C@H](C)[C@@H](O[C@H]2C[C@@](C)(OC)[C@@H](O)[C@H](C)O2)[C@H](C)[C@@H](O[C@@H]2O[C@H](C)C[C@H](N(C)C)[C@H]2O)[C@](C)(O)C[C@@H](C)[C@@H]2N[C@@H](COCCOC)O[C@H]([C@H]2C)[C@]1(C)O` [PCM-0214762], the inhibition at 10 µM was -10.9%. Regarding `FC(F)c1nc2ccccc2n1-c1nc(N2CCOCC2)nc(N2CCOCC2)n1` [PCM-0095021], the inhibition at 10 µM was 16.6%. In the case of `C[C@@H](O)[C@H]1C(=O)N2C(C(=O)O)=C([C@H]3CCCO3)S[C@H]12` [PCM-0215154], the inhibition at 10 µM was -2.3%.

In the case of `COC(=O)CCSCc1ccc(-c2onc(C)c2NC(=O)OC(C)c2ccccc2Cl)cc1` (centres unmarked) [PCM-0095376], the inhibition at 10 µM came to 20.2%. With `O=C(O)C1=CO[C@@H](O[C@@H]2O[C@H](CO)[C@@H](O)[C@H](O)[C@H]2O)[C@H]2[C@@H]1C=C[C@]2(O)CO` [PCM-0216181], the inhibition at 10 µM is -6.9%. `CC(=O)c1cc([N+](=O)[O-])c(Sc2ccc(F)cc2F)s1` [PCM-0215212]: the inhibition at 10 µM worked out at 5.4%.

`CC[C@@H]1/C=C(\C)C[C@H](C)C[C@H](OC)[C@H]2O[C@@](O)(C(=O)C(=O)N3CCCC[C@H]3C(=O)O[C@H](/C(C)=C/[C@@H]3CC[C@@H](O)[C@H](OC)C3)[C@H](C)[C@@H](O)CC1=O)[C@H](C)C[C@@H]2OC` [PCM-0215308]: the inhibition at 10 µM worked out at 6.9%.

With `N[C@@H](CSCCB(O)O)C(=O)O` [PCM-0215605], the inhibition at 10 µM is -5.4%. As for `COc1c2occc2cc2ccc(=O)oc12` [PCM-0087924], the inhibition at 10 µM was -19.5%. For the molecule `CN[C@@H]1[C@H](O)[C@H](NC)[C@H]2O[C@@]3(O)C(=O)C[C@@H](C)O[C@H]3O[C@@H]2[C@H]1O` [PCM-0214688], the inhibition at 10 µM was found to be 2.3%. For `CC(C)=CCC[C@](C)(O)[C@H]1CC[C@]2(C)[C@@H]1[C@H](O)C[C@@H]1[C@@]3(C)CC[C@H](O)C(C)(C)[C@@H]3CC[C@]12C` [PCM-0214857], the inhibition at 10 µM is 21%.

As to `O=C(O)c1cc(=O)c2c(OCC(O)COc3cccc4oc(C(=O)O)cc(=O)c34)cccc2o1` [PCM-0086401], the inhibition at 10 µM was found to be 2.6%.

On to `CC1(C)[C@@H]2CC[C@@]1(C)[C@@H](O)C2` [PCM-0214946], for which the inhibition at 10 µM is 3.1%. In the case of `CC1=CC(=O)CC(C)(C)[C@@]1(O)/C=C/C(C)=C\C(=O)O` [PCM-0215371] it was 9.3%; in that of `CN1CC(=O)N2[C@H](c3ccc4c(c3)OCO4)c3[nH]c4ccccc4c3C[C@@H]2C1=O` [PCM-0214630], -6.2%. As for `C[N+](C)(C)CCOP(=O)([O-])OP(=O)(O)OC[C@H]1O[C@@H](n2ccc(N)nc2=O)[C@H](O)[C@@H]1O` [PCM-0215877], the inhibition at 10 µM stood at 0.9%. For `O=C1CCC(N2C(=O)c3ccccc3C2=O)C(=O)N1` (centres unmarked) [PCM-0064817], the inhibition at 10 µM was 5.5%.

Consider `Cc1cc(-c2nc(-c3ccc(OC(F)(F)F)cc3)no2)nn1Cc1ccnc(N2CCN(C3CC3)CC2)c1` [PCM-0215339], for which the inhibition at 10 µM is -1.5%. As to `CC(=O)OCC(=O)[C@H]1CC[C@H]2[C@@H]3CCC4=CC(=O)CC[C@]4(C)[C@H]3CC[C@]12C` [PCM-0214761], the inhibition at 10 µM is -11.7%. Turning to `Cc1cc2c(F)c(Oc3ncnn4cc(OC[C@@H](C)O)c(C)c34)ccc2[nH]1` [PCM-0095049], the inhibition at 10 µM was 9%. Consider `CCOC(=O)c1c(C)n(C)c2ccc(O)cc12` [PCM-0095233], for which the inhibition at 10 µM is -14%. For the molecule `O=C1CCC[C@@H]2[C@H]3CCCN4CCC[C@H](CN12)[C@@H]34` [PCM-0215044], the inhibition at 10 µM was -16.3%. Take `CN1C(C(=O)Nc2ccccn2)=C(O)c2ccccc2S1(=O)=O` [PCM-0064770]: the inhibition at 10 µM turned out to be 9%. As for `Cc1nc(NC(=O)N2CCC[C@H]2C(N)=O)sc1-c1ccnc(C(C)(C)C(F)(F)F)c1` [PCM-0095427], the inhibition at 10 µM was -7.6%. Regarding `COC(=O)C1=C(C)NC(C)=C(C(=O)OC)C1c1ccccc1[N+](=O)[O-]` [PCM-0064767], the inhibition at 10 µM was determined as 14%. As to `COc1ccc(C(NC(=O)c2cnc(-c3cccnn3)[nH]c2=O)c2ccc(OC)cc2)cc1` [PCM-0215803], the inhibition at 10 µM is 18.5%. Regarding `COc1ccc2ccc(=O)oc2c1CC=C(C)C` [PCM-0094564], the inhibition at 10 µM was -70%. Regarding `CCC1=C[C@@H]2CN(C1)Cc1c([nH]c3ccccc13)[C@@](C(=O)OC)(c1cc3c(cc1OC)N(C)[C@H]1[C@@](O)(C(=O)OC)[C@H](OC(C)=O)[C@]4(CC)C=CCN5CC[C@]31[C@@H]54)C2` [PCM-0214792], the inhibition at 10 µM worked out at 14%. Take `Cc1c(C(=O)NN2CCCCC2)nn(-c2ccc(Cl)cc2Cl)c1-c1ccc(Cl)cc1` [PCM-0095470]: the inhibition at 10 µM was 42%. Take `O=c1c(-c2ccc(O)cc2)coc2cc(O)ccc12` [PCM-0065064]: the inhibition at 10 µM is -7.8%.

As for `CC(=O)O[C@@H]1C[C@@]23C[C@@]24CC[C@H](O[C@@H]2OC[C@@H](O)[C@H](O)[C@H]2O)C(C)(C)[C@@H]4CC=C3[C@]2(C)C[C@@H]3OC4(C[C@@H](C)[C@@H]3[C@@]12C)OC(O)C1(C)OC41` (some centres unmarked) [PCM-0216175], the inhibition at 10 µM is -6.2%.

In the case of `C=CC(=O)Nc1cccc(Nc2nc(Nc3ccc(OCCOC)cc3)ncc2F)c1` [PCM-0095787], the inhibition at 10 µM was found to be 90.3%. The figure for `Cc1ccc(Nc2c(F)cccc2Cl)c(CC(=O)O)c1` [PCM-0090280] is 6.9%; for `CO/N=C(\C(=O)N[C@@H]1C(=O)N2C(C(=O)[O-])=C(C[n+]3ccn4ncccc43)CS[C@H]12)c1nsc(N)n1` [PCM-0216591] it is 10.8%. As to `Cn1cc(C(=O)Nc2ccc3c(c2)OCCO3)c2ccccc2c1=O` [PCM-0215752], the inhibition at 10 µM amounted to 6.9%. As for `O=C(Nc1ccc(O)c(C(=O)O)c1)c1cccc(NC(=O)c2ccco2)c1` [PCM-0215939], the inhibition at 10 µM is -8.5%.

Turning to `NS(=O)(=O)NCCNc1nonc1C(=Nc1ccc(F)c(Br)c1)NO` [PCM-0215507], the inhibition at 10 µM is -3.1%. Take `Cc1coc2c1C(=O)C(=O)c1c-2ccc2c(C)cccc12` [PCM-0094815]: the inhibition at 10 µM was -3.9%. Take `CC(C)(Oc1ccc(Cl)cc1)C(=O)OCCOC(=O)c1cccnc1` [PCM-0214787]: the inhibition at 10 µM is -6.2%. With `O=C1C(c2[nH]c3ccccc3c2O)=Nc2ccccc21` [PCM-0215050], the inhibition at 10 µM was determined as 28.8%. As to `CCCC[C@@H](C=O)NC(=O)[C@H](CC(C)C)NC(=O)OCc1ccccc1` [PCM-0215437], the inhibition at 10 µM is -4.6%.

Turning to `C=C1C[C@@]23CC[C@H]4[C@@](C)(CCC[C@@]4(C)C(=O)O[C@@H]4O[C@H](CO)[C@@H](O)[C@H](O)[C@H]4O)[C@@H]2CC[C@]1(O[C@@H]1O[C@H](CO)[C@@H](O)[C@H](O)[C@H]1O[C@@H]1O[C@H](CO)[C@@H](O)[C@H](O)[C@H]1O)C3` [PCM-0216121], the inhibition at 10 µM is -27.8%. For the molecule `CC(C)n1nc(-c2ccc3oc(N)nc3c2)c2c(N)ncnc21` [PCM-0095423], the inhibition at 10 µM was -6.2%. As to `COc1ccc([C@@H]2CC(=O)c3c(O)cc(O[C@@H]4O[C@H](CO[C@@H]5O[C@@H](C)[C@H](O)[C@@H](O)[C@H]5O)[C@@H](O)[C@H](O)[C@H]4O)cc3O2)cc1OC` [PCM-0215169], the inhibition at 10 µM is 5.4%. As to `CCOCCn1c(C2CCN(CCc3ccc(C(C)(C)C(=O)O)cc3)CC2)nc2ccccc21` [PCM-0215887], the inhibition at 10 µM came to 10.2%.

Take `Fc1ccc(CNc2ncnc3ccc(F)cc23)cc1` [PCM-0215554]: the inhibition at 10 µM is -17%. The figure for `C=CC(=O)Nc1cc(Nc2nccc(-n3cc(CN(C)C)c(-c4ccccc4)n3)n2)c(OC)cc1N1CCOCC1` [PCM-0216259] is 11.1%. Take `CN(C)c1ccc(C(=O)NCCCCCCC(=O)NO)cc1` [PCM-0095347]: the inhibition at 10 µM worked out at 4.7%. For `CNC(=O)Nc1ccc(-c2nc(N3CC4CCC(C3)O4)c3cnn(C4CCC5(CC4)OCCO5)c3n2)cc1` [PCM-0095327], the inhibition at 10 µM worked out at 15.9%. The figure for `CNS(=O)(=O)CCc1ccc2[nH]cc(C3CCN(C)CC3)c2c1` [PCM-0065268] is -14.8%; for `CC1(C)S[C@@H]2[C@H](NC(=O)C(c3ccccc3)S(=O)(=O)O)C(=O)N2[C@H]1C(=O)O` (some centres unmarked) [PCM-0216099] it is 7.7%. In the case of `Cc1cc(Nc2cc(CN3CCOCC3)c3nc(C)c(Cc4ccc(Cl)cc4F)n3n2)n[nH]1` [PCM-0095222] it was 56.6%; in that of `C=C1C2CCC(C2)C1(C)C` (centres unmarked) [PCM-0216213], 18.5%.
